Experimental data as given in US4022909A, “Method of inhibiting the growth of bacteria using quaternary ammonium compounds” (IMC Chemical Group, Inc., priority 1976, dated 1977).

Legend:
Staphylococcus aureus = experiment: streak plate test, Inhibition Endpoint, Staphylococcus aureus; type: cell-based; conditions: Gram +, lower figure allows growth, higher figure inhibits growth
Gaffkya tetragena = experiment: streak plate test, Inhibition Endpoint, Gaffkya tetragena; type: cell-based; conditions: Gram +, lower figure allows growth, higher figure inhibits growth
Escherichia coli = experiment: streak plate test, Inhibition Endpoint, Escherichia coli; type: cell-based; conditions: Gram -, lower figure allows growth, higher figure inhibits growth
[1] = tested on: Streptococcus hemolyticus; experiment: streak plate test, Inhibition Endpoint, Streptococcus hemolyticus; type: cell-based; conditions: Streptococcus pyogenes, Gram +, lower figure allows growth, higher figure inhibits growth
Shigella dysenteriae = experiment: streak plate test, Inhibition Endpoint, Shigella dysenteriae; type: cell-based; conditions: read-out: Inhibition Endpoint
Streptococcus fecalis = experiment: streak plate test, Inhibition Endpoint, Streptococcus fecalis; type: cell-based; conditions: Gram +, lower figure allows growth, higher figure inhibits growth
bacteria = experiment: antibacterial activity by the streak plate test (in words); type: cell-based
Description: (§1) The compound was tested for antibacterial and antifungal activity by the streak plate test, which is known in the art. The test substance was incorporated into several portions of an agar medium at several known concentrations and the mixtures were placed in Petri dishes. Then streaks of test organisms were applied to the surface of the medium, the dishes were incubated under growth-promoting conditions, and then examined for growth of organisms. The results are reported as the Inhibition End-Point Range, the lower figure signifying a concentration that allows growth and the higher figure being a concentration that inhibits growth.

Pseudomonas auriginosa = experiment: streak plate test, Inhibition Endpoint, Pseudomonas auriginosa; type: cell-based; conditions: Gram -, lower figure allows growth, higher figure inhibits growth
Micrococcus flavus = experiment: streak plate test, Inhibition Endpoint, Micrococcus flavus; type: cell-based; conditions: Gram +, lower figure allows growth, higher figure inhibits growth
[2] = tested on: Pasteurella pseudotuberculosis; experiment: microbe, parasite or virus in culture; type: cell-based; conditions: Yersinia pseudotuberculosis, read-out: Inhibition Endpoint
Mycobacterium ranae = experiment: streak plate test, Inhibition Endpoint, Mycobacterium ranae; type: cell-based; conditions: Acid fast, lower figure allows growth, higher figure inhibits growth
mice = experiment: acute oral toxicity in mice; conditions: oral administration, mice
[3] = acute oral toxicity in mice; conditions: mouse, in vivo, po
fungi = experiment: antifungal activity by the streak plate test (in words); type: cell-based
Description: as §1

Structure (SMILES)	MIC (Staphylococcus aureus) [µg/mL]	MIC (Gaffkya tetragena) [µg/mL]	MIC (Escherichia coli) [µg/mL]	MIC [1] [µg/mL]	MIC (Shigella dysenteriae) [µg/mL]	MIC (Streptococcus fecalis) [µg/mL]	antibacterial activity (bacteria)	MIC (Pseudomonas auriginosa) [µg/mL]	MIC (Micrococcus flavus) [µg/mL]	MIC [2] [µg/mL]	MIC (Mycobacterium ranae) [µg/mL]	LD0 (mice) [mg/kg]	LD100 (mice) [mg/kg]	LD50 [3] [mg/kg]	activity against fungi (fungi)
CCCCCCCCCCCCCC(=O)OCC(C)(C)[N+](C)(C)C.[I-] [Example 1, (2-myristoyloxy-1,1-dimethylethyl)-trimethylammonium iodide]	1 to 5	1 to 5	100 to 500	1 to 5	5 to 10	1 to 5	powerful antibacterial activity	> 1000	0.1 to 0.5	1 to 5	1 to 5	600	2000	1000	
CCCCCCCCCCCC(=O)OCC(C)(C)[N+](C)(C)C.[I-] [Example 2, (2-lauroyloxy-1,1-dimethylethyl)-trimethylammonium iodide]	1 to 5		100 to 500	5 to 10	10 to 50	5 to 10		500 to 1000		5 to 10	1 to 50	500	1700	900	only slight activity against fungi
CCCCCCCCCCCCCCCC(=O)OCC(C)(C)[N+](C)(C)C.[I-] [Example 3, (2-palmitoyloxy-1,1-dimethylethyl)-trimethylammonium iodide]	1 to 5		> 1000	1 to 5	50 to 100	1 to 5		> 1000		100 to 500	50 to 100	800	3200	1490	only slightly active against fungi
CCCCCCCC(=O)OCC(C)(C)[N+](C)(C)C.[I-] [Example 4, (2-octanoyloxy-1,1-dimethylethyl)trimethylammonium iodide]	100 to 500		500 to 1000	> 1000	> 1000	> 1000		> 1000		100 to 500	100 to 500	800	1700	1160	
